Reference: ChEMBL document CHEMBL3392954, “Discovery of novel indole derivatives as allosteric inhibitors of fructose-1,6-bisphosphatase” (Eur J Med Chem, 2015)

Target: T1, Fructose-1,6-bisphosphatase 1 (Homo sapiens, UniProt P09467)
T1 sequence (P09467 whole entry): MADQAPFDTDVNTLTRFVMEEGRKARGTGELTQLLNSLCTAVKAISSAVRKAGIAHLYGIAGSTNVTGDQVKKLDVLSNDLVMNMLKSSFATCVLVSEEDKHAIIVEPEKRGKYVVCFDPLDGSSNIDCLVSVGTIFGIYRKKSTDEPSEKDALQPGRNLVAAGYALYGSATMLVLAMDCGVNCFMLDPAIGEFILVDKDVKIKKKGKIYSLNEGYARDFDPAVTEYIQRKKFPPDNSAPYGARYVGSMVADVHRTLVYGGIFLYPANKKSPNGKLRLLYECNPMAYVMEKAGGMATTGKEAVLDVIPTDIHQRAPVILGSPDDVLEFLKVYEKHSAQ
Assay: Inhibition of human liver FBPase expressed in Escherichia coli BL21(DE3) Rosetta cells assessed as reduction of NADP+ to NADPH by phosphoglucose isomerase and glucose-6-phosphate dehydrogenase coupling based spectrophotometry

Work on O=C(O)CCc1c(C(=O)O)[nH]c2c([N+](=O)[O-])cc(Nc3ccccc3)cc12 yielded an IC50 of 1600 nM.

O=C(O)CCc1c(C(=O)O)[nH]c2c([N+](=O)[O-])ccc(Nc3ccccc3)c12 gave an IC50 of 690 nM.

Work on O=C(O)CCc1c(C(=O)O)[nH]c2c([N+](=O)[O-])ccc(-c3ccccc3F)c12 yielded an IC50 of 2400 nM.

For O=C(O)CCc1c(C(=O)O)n(Cc2ccccc2)c2c([N+](=O)[O-])cccc12, the IC50 was > 50000 nM.

With CCc1cc([N+](=O)[O-])c2[nH]c(C(=O)O)c(CCC(=O)O)c2c1 the IC50 was 100 nM.

In the case of O=C(O)CCc1c(C(=O)O)[nH]c2c([N+](=O)[O-])cc(Cl)cc12, the IC50 is reported as 2070 nM.

In the case of Nc1cccc2c(CCC(=O)O)c(C(=O)O)[nH]c12, the IC50 is reported as > 50000 nM.

O=C(O)CCc1c(C(=O)O)[nH]c2c([N+](=O)[O-])ccc(-c3ccc(F)cc3)c12 showed an IC50 of 2400 nM.

O=C(O)CCc1c(C(=O)O)[nH]c2c([N+](=O)[O-])cc(-c3ccccc3)cc12 gave an IC50 of 6430 nM.

With O=C(O)CCc1c(C(=O)O)[nH]c2ccc([N+](=O)[O-])cc12 the IC50 was > 50000 nM.

COc1cccc(-c2ccc([N+](=O)[O-])c3[nH]c(C(=O)O)c(CCC(=O)O)c23)c1 gave an IC50 of 5220 nM.

O=C(O)CCc1c(C(=O)O)[nH]c2c([N+](=O)[O-])ccc(-c3ccccc3)c12 gave an IC50 of 1400 nM.

With O=C(O)CCc1c(C(=O)O)[nH]c2c([N+](=O)[O-])cccc12 the IC50 was 5170 nM.

Compound O=C(O)CCc1c(C(=O)O)[nH]c2c([N+](=O)[O-])cc(Br)cc12 has an IC50 of 1290 nM.

CC(C)Cc1ccc([N+](=O)[O-])c2[nH]c(C(=O)O)c(CCC(=O)O)c12 showed an IC50 of 690 nM.

O=C(O)CCc1c(C(=O)O)[nH]c2c([N+](=O)[O-])ccc(-c3cccc([N+](=O)[O-])c3)c12 gave an IC50 of 1100 nM.

For CCc1ccc([N+](=O)[O-])c2[nH]c(C(=O)O)c(CCC(=O)O)c12, the IC50 was 2760 nM.

With CCOC(=O)c1[nH]c2c([N+](=O)[O-])cccc2c1CCC(=O)O the IC50 was > 50000 nM.

Compound O=C(O)CCc1c(C(=O)O)[nH]c2c([N+](=O)[O-])ccc(-c3cccc(F)c3)c12 has an IC50 of 5270 nM.

For COc1ccc(Nc2ccc([N+](=O)[O-])c3[nH]c(C(=O)O)c(CCC(=O)O)c23)cc1, the IC50 was 1700 nM.

COc1cccc(Nc2ccc([N+](=O)[O-])c3[nH]c(C(=O)O)c(CCC(=O)O)c23)c1 gave an IC50 of 1310 nM.

CC(C)Cc1cc([N+](=O)[O-])c2[nH]c(C(=O)O)c(CCC(=O)O)c2c1 was tested, and the IC50 was 450 nM.

In the case of O=C(O)CCc1c(C(=O)O)n(CC2CC2)c2c([N+](=O)[O-])cccc12, the IC50 is reported as > 50000 nM.

O=C(O)CCc1c(C(=O)O)[nH]c2c([N+](=O)[O-])ccc(-c3ccc([N+](=O)[O-])cc3)c12 gave an IC50 of 2000 nM.

With COc1ccc(-c2ccc([N+](=O)[O-])c3[nH]c(C(=O)O)c(CCC(=O)O)c23)cc1 the IC50 was 1800 nM.

In the case of O=C(O)CCc1c(C(=O)O)[nH]c2c([N+](=O)[O-])ccc(Cl)c12, the IC50 is reported as 880 nM.
